# Patent US12178878B2, “Amyloid peptide scaffolds coordinate with Alzheimer's disease drugs” (The University of Massachusetts, priority 2018, dated 2024)
# Read-outs that look alike come from different tables or passages of the source.
# Tests used:
# [1] = test system: […] (SEQ ID NO: 4) amyloid peptide; experiment: Incubation of amyloid gel containing inhibitor in PBS at 37° C., drug retained; format: binding; conditions: YFTGAIIGNFY 5 mg/mL; for AD compound captured after incubation, Wash 2: 2nd pellet wash; for AD compound captured after incubation, Wash 3: 3rd pellet wash
# Description: Incubation of Amyloid Gels-Containing Inhibitors in PBS at 37° C. […] (SEQ ID NO: 4) amyloid gels were prepared at 10 mg/mL (1 mL) and a 0.1 M PBS solution of Donepezil was added at 1000 μM (1 mL) and was left to stir overnight (the final peptide concentration was diluted to 5 mg/mL). A control of 1 mL 0.1 M PBS was also prepared. The complexed amyloid/inhibitor was sequentially centrifuged, and the same volume of water (2 mL) was added in the pellet to wash it (followed by vortexing until obtaining a complete dispersion) and remove the unbound inhibitor (wash 1). The sample was centrifuged, the pellet was isolated, and 2 mL of 0.1 M PBS was added, followed by overnight incubation under stirring at 37° C. The inhibitor-containing peptide was then pelletized, the supernatant was decanted, and the peptide/inhibitor dispersion was quantified after addition of 2 mL water (wash 2). A second washing step with 2 mL fresh water was subsequently realized and the pellet was quantified again (wash 3). Example 2: Coordination of the Designed Amyloid Peptides with AD drugs in Dilute Solution.
# [2] = test system: […] (SEQ ID NO: 4) amyloid peptide; format: binding; conditions: for AD compound captured, Wash 1 / AD compound captured, Wash 2 / AD compound captured, Wash 3: 150 μM inhibitor loaded; for AD compound captured, Wash 1: 1st pellet wash; for AD compound captured, Wash 2: 2nd pellet wash; for AD compound captured, Wash 3: 3rd pellet wash; for fraction of the 150 μM loaded drug incorporated into the peptide: UV-Vis, first wash
# Description: Amyloid Peptide/Inhibitor Coordination Studies in Dilute Solutions. […]. As a negative control, 1 mL of 0.1 M PBS buffer was added. The mixtures were vortexed and sonicated to homogenously disperse any solid aggregates and stirred overnight to allow for coordination. The mixtures were transferred to 2 mL Eppendorf tubes and centrifuged for 15 mins at 4,400 rpm (14° C.) to pelletize the amyloid bound-inhibitors, and the supernatant was decanted. Subsequently, 1 mL of DI water was added to wash the pellet (followed by vortexing until obtaining a homogenous dispersion) in order to remove any unbound inhibitor. The samples were then centrifuged again at the same conditions so as to pelletize the amyloid materials, and the supernatant was decanted. Another 1 mL of DI water was then added into the pellet, the mixture was vortexed, and the physically bound inhibitor into the dilute amyloid peptide dispersions was quantified by UV-Vis between 200-600 nm and MS. This step is denoted as wash 1 in our study. Two additional pellet purification cycles were realized with replacement of the decanted volume each time with 1 mL of fresh DI water (denoted as wash 2 and wash 3 respectively). The inhibitor-containing peptides amyloids were normalized at 400 nm over the respective no inhibitor-containing amyloid peptides at the specific washing step, and the measured inhibitor peak values (at 315 nm and 323 nm) were subtracted from that of the amyloid peptide carriers at the same wavelength and concentration. The amount of inhibitors coordinated with the amyloid peptide carriers was quantified based on a calibration curve by both UV-Vis and MS.
# . The peak at 315 nm was selected for inhibitor quantification due the absence of peaks at that range for both peptides. […]. However, the peak at 315 nm was selected for inhibitor quantification, and the following equation was used for both peptides: A315=A315 ([…]/Donepezil)−A315 ([…])
# […]. The peak at 323 nm was used for inhibitor quantification due the absence of peaks at that range for both peptides. […].
# [3] = incubated at 37° C. in PBS for one day after wash 1, by MS
# [4] = incubated at 37° C. in PBS for one day after wash 1, by UV-Vis
Compound,"AD compound captured after incubation, Wash 2 [1, 3]","AD compound captured after incubation, Wash 3 [1, 3]","AD compound captured after incubation, Wash 2 [1, 4]","AD compound captured after incubation, Wash 3 [1, 4]","AD compound captured, Wash 1 ([2]; YFTGAIIGNFY 1 mg/mL, by MS)","AD compound captured, Wash 2 ([2]; YFTGAIIGNFY 1 mg/mL, by MS)","AD compound captured, Wash 3 ([2]; YFTGAIIGNFY 1 mg/mL, by MS)","AD compound captured, Wash 1 ([2]; YFTGAIIGNFY 1 mg/mL, by UV-Vis)","AD compound captured, Wash 1 ([2]; YFTGAIIGNFY 1 mg/mL, by UV-Vis, listed as Donepezil)","AD compound captured, Wash 2 ([2]; YFTGAIIGNFY 1 mg/mL, by UV-Vis)","AD compound captured, Wash 3 ([2]; YFTGAIIGNFY 1 mg/mL, by UV-Vis)",fraction of the 150 μM loaded drug incorporated into the peptide ([2]; YFTGAIIGNFY 1 mg/mL),"AD compound captured, Wash 1 ([2]; […] 1 mg/mL, by MS)","AD compound captured, Wash 2 ([2]; […] 1 mg/mL, by MS)","AD compound captured, Wash 3 ([2]; […] 1 mg/mL, by MS)","AD compound captured, Wash 1 ([2]; […] 1 mg/mL, by UV-Vis)","AD compound captured, Wash 1 ([2]; […] 1 mg/mL, by UV-Vis, listed as Tacrine)","AD compound captured, Wash 2 ([2]; […] 1 mg/mL, by UV-Vis)","AD compound captured, Wash 3 ([2]; […] 1 mg/mL, by UV-Vis)",fraction of the 150 μM loaded drug incorporated into the peptide ([2]; […] 1 mg/mL)
COc1cc2c(cc1OC)C(=O)C(CC1CCN(Cc3ccccc3)CC1)C2 (centres unmarked) [donepezil],128 ± 12 µM,120 ± 18 µM,121 ± 25 µM,110 ± 31 µM,43 ± 6 µM,32 ± 4 µM,21 ± 9 µM,38 µM,38 ± 4 µM,24 ± 4 µM,5 ± 4 µM,approximately ¼,,,,,,,,
Nc1c2c(nc3ccccc13)CCCC2 [tacrine],,,,,,,,,,,,,37 ± 2 µM,2 ± 2 µM,0 µM,26 µM,26 ± 2 µM,14 ± 2 µM,3 ± 2 µM,approximately ⅕
